{"source": "patent US20070185065A1", "about": "“Combination therapy for coronary artery disease” (priority 2006, published 2007)", "origin": "cited, not measured here", "key": {"[1]": {"system": "patients with clinical evidence of HF post-MI"}, "[2]": {"system": "patients with atherosclerosis not limited to MI", "settings": "compared to aspirin, three year period"}, "[3]": {"system": "patients who have had an acute MI", "settings": "160 mg twice daily"}, "[4]": {"system": "proinflammatory cytokines and C-reactive protein (CRP)", "settings": "six weeks of therapy"}, "[5]": {"system": "asymptomatic patients with an LVEF 40 percent after MI", "settings": "mean follow-up of 42 months"}, "[6]": {"system": "patients with known CHD and an HDL-C concentration below 45 mg/dL already receiving a statin"}, "[7]": {"system": "patients with systolic left ventricular dysfunction (SLVD) post-MI"}, "[8]": {"system": "patients with chronic stable angina", "settings": "six weeks therapy, metoprolol 200 mg daily"}}, "note": "Read-outs that look alike come from different tables or passages of the source.", "data": [{"compound": "CCOC(=O)[C@H](CCc1ccccc1)N[C@@H](C)C(=O)N1[C@H](C(=O)O)C[C@@H]2CCC[C@@H]21", "note": "[ramipril]", "values": [{"measurement": "mortality", "setting": "[1]; 603 United Kingdom patients followed for a mean of 59 months, 39 percent placebo", "value": 28, "unit": "%"}, {"measurement": "reduction in sudden death", "setting": "[1]; average of 15 months follow-up", "value": 30, "unit": "%"}, {"measurement": "reduction in the incidence of severe, resistant HF", "setting": "[1]; average of 15 months follow-up", "value": 23, "unit": "%"}, {"measurement": "decrease in mortality", "setting": "[1]; average of 15 months follow-up, versus placebo, 95% CI 11 to 40 percent", "value": 27, "unit": "%"}, {"measurement": "incidence of severe, resistant HF", "setting": "[1]; average of 15 months follow-up, 18 percent for placebo", "value": 14, "unit": "%"}, {"measurement": "mortality", "setting": "[1]; average of 15 months follow-up, 23 percent with placebo", "value": 17, "unit": "%"}, {"measurement": "relative risk reduction (mortality)", "setting": "[1]; mean of 59 months, 95% CI 15 to 52 percent", "value": 36, "unit": "%"}]}, {"compound": "COC(=O)[C@H](c1ccccc1Cl)N1CCc2sccc2C1", "note": "[Clopidogrel, clopidogrel]", "values": [{"measurement": "fatal or nonfatal MI", "setting": "[2]", "value": "significant reduction"}]}, {"compound": "CCCCC(=O)N(Cc1ccc(-c2ccccc2-c2nnn[nH]2)cc1)[C@H](C(=O)O)C(C)C", "note": "[valsartan]", "values": [{"measurement": "reduction in mortality after an MI compared to an ACE inhibitor", "setting": "[3]", "value": "as effective as an ACE inhibitor"}]}, {"compound": "CC(=O)Oc1ccccc1C(=O)O", "note": "[aspirin]", "values": [{"measurement": "markers of inflammation (proinflammatory cytokines and CRP)", "setting": "[4]", "value": "significantly reduced"}]}, {"compound": "C[C@H](CS)C(=O)N1CCC[C@H]1C(=O)O", "note": "[captopril]", "values": [{"measurement": "reduction in hospitalization for HF", "setting": "[5]", "value": 22, "unit": "%"}, {"measurement": "reduction in the incidence of recurrent MI", "setting": "[5]", "value": 25, "unit": "%"}, {"measurement": "reduction in the incidence of severe HF", "setting": "[5]", "value": 37, "unit": "%"}, {"measurement": "decrease in mortality", "setting": "[5]; versus placebo, 95% CI 3 to 32 percent", "value": 19, "unit": "%"}, {"measurement": "mortality", "setting": "[5]; 25 percent for placebo", "value": 20, "unit": "%"}]}, {"compound": "O=C(O)c1cccnc1", "note": "[ER niacin, niacin]", "values": [{"measurement": "mean increase in HDL-C", "setting": "[6]; 1000 mg daily, on top of a statin", "value": 21, "unit": "%"}, {"measurement": "HDL-C on treatment", "setting": "[6]; 1000 mg daily, 1.0 mmol/L at baseline", "value": 1.22, "unit": "mmol/L"}, {"measurement": "HDL-C on treatment", "setting": "[6]; 1000 mg daily, 39 mg/dL at baseline", "value": 47, "unit": "mg/dL"}, {"measurement": "cardiovascular events, percent of patients", "setting": "[6]; 9.6 percent with placebo, p=0.20", "value": 3.8, "unit": "%"}, {"measurement": "increase in mean carotid intima-media thickness (CIMT)", "setting": "[6]; after one year of therapy, ultrasound, p=0.23, placebo 0.044 mm", "value": 0.014, "unit": "mm"}]}, {"compound": "COC(=O)[C@@H]1CC2=CC(=O)CC[C@]2(C)[C@@]23O[C@@H]2C[C@@]2(C)[C@@H](CC[C@@]24CCC(=O)O4)[C@H]13", "note": "[eplerenone]", "values": [{"measurement": "reduction in combined primary endpoint of CV mortality and CV hospitalization", "setting": "[7]; added to standard therapy", "value": 13, "unit": "%"}, {"measurement": "reduction in CV mortality", "setting": "[7]; added to standard therapy, P=0.005", "value": 17, "unit": "%"}, {"measurement": "reduction in all-cause mortality", "setting": "[7]; added to standard therapy, P=0.008", "value": 15, "unit": "%"}, {"measurement": "further reduction in mortality", "setting": "[7]; subgroup already receiving ACE inhibitors and beta-blockers", "value": 27, "unit": "%"}]}, {"compound": "COCCc1ccc(OCC(O)CNC(C)C)cc1", "note": "(centres unmarked) [metoprolol]", "values": [{"measurement": "increase in mean exercise time to 1-mm ST segment depression", "setting": "[8]; long-acting preparations, nifedipine 20 mg BID", "value": 70, "unit": "s"}, {"measurement": "frequency of angina", "setting": "[8]", "value": "reduced the frequency of angina"}]}]}
